From US11725011B2, “Bicyclic urea kinase inhibitors and uses thereof” (The Broad Institute, Inc., priority 2016, dated 2023)

How the values were obtained:
Experiment in all cases: KINOMEscan
Type in all cases: binding
Conditions in all cases: 1 uM
NEK9 = NEK9 (Homo sapiens (Human), UniProt Q8TD19)
KIT = KIT (Homo sapiens (Human), UniProt P10721)
[1] = target: ABL1 (Y253F)-phosphorylated (Homo sapiens (Human), UniProt P00519, Y253F)
ALK (C1156Y) = ALK (C1156Y) (Homo sapiens (Human), UniProt Q9UM73, C1156Y)
PIK3CB = PIK3CB (Homo sapiens (Human), UniProt P42338)
NEK6 = NEK6 (Homo sapiens (Human), UniProt Q9HC98)
VRK2 = VRK2 (Homo sapiens (Human), UniProt Q86Y07)
TLK1 = TLK1 (Homo sapiens (Human), UniProt Q9UKI8)
SNARK = SNARK (Homo sapiens (Human), UniProt Q9H093)
[2] = target: JAK3 (JH1domain-catalytic) (Homo sapiens (Human), UniProt P52333)
FLT4 = FLT4 (Homo sapiens (Human), UniProt P35916)
YSK4 = YSK4 (Homo sapiens (Human), UniProt Q56UN5)
CAMK1 = CAMK1 (Homo sapiens (Human), UniProt Q14012)
PFCDPK1 (P. falciparum) = PFCDPK1 (P. falciparum) (Plasmodium falciparum (isolate 3D7), UniProt P62344)
CLK4 = CLK4 (Homo sapiens (Human), UniProt Q9HAZ1)
WEE2 = WEE2 (Homo sapiens (Human), UniProt P0C1S8)
DDR1 = DDR1 (Homo sapiens (Human), UniProt Q08345)
PIK3CA (E545K) = PIK3CA (E545K) (Homo sapiens (Human), UniProt P42336, E545K)
TRKC = TRKC (Homo sapiens (Human), UniProt Q16288)
ERK2 = ERK2 (Homo sapiens (Human), UniProt P28482)
[3] = target: ABL1 (F317L)-phosphorylated (Homo sapiens (Human), UniProt P00519, F317L)
DCAMKL3 = DCAMKL3 (Homo sapiens (Human), UniProt Q9C098)
LIMK2 = LIMK2 (Homo sapiens (Human), UniProt P53671)
PFPK5 (P. falciparum) = PFPK5 (P. falciparum) (Plasmodium falciparum (isolate 3D7), UniProt P61075)
MAPKAPK2 = MAPKAPK2 (Homo sapiens (Human), UniProt P49137)
GRK7 = GRK7 (Homo sapiens (Human), UniProt Q8WTQ7)
DLK = DLK (Homo sapiens (Human), UniProt Q12852)
IKK-epsilon = IKK-epsilon (Homo sapiens (Human), UniProt Q14164)
TEC = TEC (Homo sapiens (Human), UniProt P42680)
TNNI3K = TNNI3K (Homo sapiens (Human), UniProt Q59H18)
PAK6 = PAK6 (Homo sapiens (Human), UniProt Q9NQU5)
MINK = MINK (Homo sapiens (Human), UniProt Q8N4C8)
TIE1 = TIE1 (Homo sapiens (Human), UniProt P35590)
FAK = FAK (Homo sapiens (Human), UniProt Q05397)
SRPK1 = SRPK1 (Homo sapiens (Human), UniProt Q96SB4)
CAMK2B = CAMK2B (Homo sapiens (Human), UniProt Q13554)
SNRK = SNRK (Homo sapiens (Human), UniProt Q9NRH2)
[4] = target: RSK2 (Kin.Dom.1-N-terminal) (Homo sapiens (Human), UniProt P51812)
FRK = FRK (Homo sapiens (Human), UniProt P42685)
CDK5 = CDK5 (Homo sapiens (Human), UniProt Q00535)
RAF1 = RAF1 (Homo sapiens (Human), UniProt P04049)

Sequence of TNNI3K (Q59H18 whole entry): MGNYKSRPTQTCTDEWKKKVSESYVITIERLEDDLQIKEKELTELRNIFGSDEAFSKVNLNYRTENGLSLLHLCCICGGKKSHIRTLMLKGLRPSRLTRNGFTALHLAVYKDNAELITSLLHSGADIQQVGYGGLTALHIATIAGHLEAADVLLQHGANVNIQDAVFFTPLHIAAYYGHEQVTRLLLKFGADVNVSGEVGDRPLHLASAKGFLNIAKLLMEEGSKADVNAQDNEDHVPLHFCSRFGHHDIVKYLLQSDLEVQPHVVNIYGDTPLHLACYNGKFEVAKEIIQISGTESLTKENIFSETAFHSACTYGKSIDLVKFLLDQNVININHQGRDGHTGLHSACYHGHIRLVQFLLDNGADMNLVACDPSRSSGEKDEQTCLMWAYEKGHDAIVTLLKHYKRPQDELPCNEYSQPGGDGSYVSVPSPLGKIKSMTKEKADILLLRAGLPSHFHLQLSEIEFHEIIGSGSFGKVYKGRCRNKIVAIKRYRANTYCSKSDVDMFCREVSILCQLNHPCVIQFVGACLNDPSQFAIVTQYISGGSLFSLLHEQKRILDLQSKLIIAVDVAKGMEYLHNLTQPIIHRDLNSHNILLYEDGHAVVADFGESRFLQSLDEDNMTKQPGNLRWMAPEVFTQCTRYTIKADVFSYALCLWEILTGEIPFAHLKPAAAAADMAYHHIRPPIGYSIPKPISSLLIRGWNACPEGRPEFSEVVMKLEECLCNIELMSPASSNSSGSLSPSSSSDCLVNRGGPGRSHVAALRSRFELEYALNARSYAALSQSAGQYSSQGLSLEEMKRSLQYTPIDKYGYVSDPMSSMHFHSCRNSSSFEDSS
Sequence of SRPK1 (Q96SB4 whole entry): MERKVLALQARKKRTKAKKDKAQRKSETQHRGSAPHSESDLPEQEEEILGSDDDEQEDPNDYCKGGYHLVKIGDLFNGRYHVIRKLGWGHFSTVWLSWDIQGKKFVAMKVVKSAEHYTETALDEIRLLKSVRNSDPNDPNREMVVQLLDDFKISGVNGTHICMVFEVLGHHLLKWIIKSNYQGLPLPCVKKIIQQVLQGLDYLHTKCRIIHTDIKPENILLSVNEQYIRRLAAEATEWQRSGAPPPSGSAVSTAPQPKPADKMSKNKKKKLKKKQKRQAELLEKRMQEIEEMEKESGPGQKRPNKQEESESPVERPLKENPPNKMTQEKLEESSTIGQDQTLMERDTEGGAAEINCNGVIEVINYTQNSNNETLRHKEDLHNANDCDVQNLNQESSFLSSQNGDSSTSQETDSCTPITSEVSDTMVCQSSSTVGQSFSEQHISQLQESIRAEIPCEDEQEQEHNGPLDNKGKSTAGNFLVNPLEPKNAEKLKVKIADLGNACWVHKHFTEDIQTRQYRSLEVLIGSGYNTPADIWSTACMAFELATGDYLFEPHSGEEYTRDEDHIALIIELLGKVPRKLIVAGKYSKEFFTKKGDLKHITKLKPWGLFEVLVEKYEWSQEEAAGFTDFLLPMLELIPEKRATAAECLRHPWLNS
Sequence of FAK (Q05397 whole entry): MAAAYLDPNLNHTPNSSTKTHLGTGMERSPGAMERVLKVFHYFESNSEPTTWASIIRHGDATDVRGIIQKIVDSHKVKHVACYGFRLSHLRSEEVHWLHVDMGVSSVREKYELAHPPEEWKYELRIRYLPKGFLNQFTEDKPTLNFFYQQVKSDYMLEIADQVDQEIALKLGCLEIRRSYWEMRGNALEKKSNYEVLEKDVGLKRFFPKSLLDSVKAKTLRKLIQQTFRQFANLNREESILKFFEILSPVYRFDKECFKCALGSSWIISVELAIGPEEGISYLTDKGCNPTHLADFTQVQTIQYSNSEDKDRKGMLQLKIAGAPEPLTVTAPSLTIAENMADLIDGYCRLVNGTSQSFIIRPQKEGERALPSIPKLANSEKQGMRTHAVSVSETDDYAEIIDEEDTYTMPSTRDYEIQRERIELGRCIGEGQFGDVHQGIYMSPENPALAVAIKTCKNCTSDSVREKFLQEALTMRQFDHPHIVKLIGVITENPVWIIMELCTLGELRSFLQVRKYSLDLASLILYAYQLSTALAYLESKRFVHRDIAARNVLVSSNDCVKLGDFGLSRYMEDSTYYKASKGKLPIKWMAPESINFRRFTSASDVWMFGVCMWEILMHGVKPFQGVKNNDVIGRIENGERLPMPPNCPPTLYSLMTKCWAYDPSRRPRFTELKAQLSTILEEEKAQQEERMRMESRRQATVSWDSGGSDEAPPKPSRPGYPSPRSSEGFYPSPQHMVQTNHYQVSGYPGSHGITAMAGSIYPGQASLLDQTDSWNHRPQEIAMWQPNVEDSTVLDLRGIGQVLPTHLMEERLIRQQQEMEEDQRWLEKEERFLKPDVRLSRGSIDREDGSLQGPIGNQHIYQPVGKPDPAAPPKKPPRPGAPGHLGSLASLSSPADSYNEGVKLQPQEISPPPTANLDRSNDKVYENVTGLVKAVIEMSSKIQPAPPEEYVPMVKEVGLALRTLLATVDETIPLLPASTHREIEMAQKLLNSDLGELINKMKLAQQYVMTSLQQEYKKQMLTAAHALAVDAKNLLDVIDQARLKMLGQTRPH
Sequence of SNRK (Q9NRH2 whole entry): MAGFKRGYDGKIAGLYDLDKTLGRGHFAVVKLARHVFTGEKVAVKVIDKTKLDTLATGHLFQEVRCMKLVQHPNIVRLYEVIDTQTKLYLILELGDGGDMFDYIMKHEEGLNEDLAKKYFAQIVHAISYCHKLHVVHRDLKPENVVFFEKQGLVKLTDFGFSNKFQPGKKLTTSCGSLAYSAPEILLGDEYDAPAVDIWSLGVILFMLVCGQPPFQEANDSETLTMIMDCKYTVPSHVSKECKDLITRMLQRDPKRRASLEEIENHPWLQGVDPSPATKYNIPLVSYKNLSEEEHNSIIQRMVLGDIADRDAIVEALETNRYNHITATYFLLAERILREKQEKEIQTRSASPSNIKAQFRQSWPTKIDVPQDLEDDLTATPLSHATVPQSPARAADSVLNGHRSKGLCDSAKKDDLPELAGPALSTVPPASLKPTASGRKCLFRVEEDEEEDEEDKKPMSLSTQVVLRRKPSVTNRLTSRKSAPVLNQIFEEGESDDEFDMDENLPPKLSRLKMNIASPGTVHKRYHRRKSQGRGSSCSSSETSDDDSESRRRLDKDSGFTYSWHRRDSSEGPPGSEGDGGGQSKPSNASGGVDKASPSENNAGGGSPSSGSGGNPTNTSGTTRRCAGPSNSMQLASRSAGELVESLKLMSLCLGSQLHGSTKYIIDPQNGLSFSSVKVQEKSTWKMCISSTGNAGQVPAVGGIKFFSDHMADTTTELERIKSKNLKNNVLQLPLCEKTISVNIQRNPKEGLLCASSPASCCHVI
Sequence of LIMK2 (P53671 whole entry): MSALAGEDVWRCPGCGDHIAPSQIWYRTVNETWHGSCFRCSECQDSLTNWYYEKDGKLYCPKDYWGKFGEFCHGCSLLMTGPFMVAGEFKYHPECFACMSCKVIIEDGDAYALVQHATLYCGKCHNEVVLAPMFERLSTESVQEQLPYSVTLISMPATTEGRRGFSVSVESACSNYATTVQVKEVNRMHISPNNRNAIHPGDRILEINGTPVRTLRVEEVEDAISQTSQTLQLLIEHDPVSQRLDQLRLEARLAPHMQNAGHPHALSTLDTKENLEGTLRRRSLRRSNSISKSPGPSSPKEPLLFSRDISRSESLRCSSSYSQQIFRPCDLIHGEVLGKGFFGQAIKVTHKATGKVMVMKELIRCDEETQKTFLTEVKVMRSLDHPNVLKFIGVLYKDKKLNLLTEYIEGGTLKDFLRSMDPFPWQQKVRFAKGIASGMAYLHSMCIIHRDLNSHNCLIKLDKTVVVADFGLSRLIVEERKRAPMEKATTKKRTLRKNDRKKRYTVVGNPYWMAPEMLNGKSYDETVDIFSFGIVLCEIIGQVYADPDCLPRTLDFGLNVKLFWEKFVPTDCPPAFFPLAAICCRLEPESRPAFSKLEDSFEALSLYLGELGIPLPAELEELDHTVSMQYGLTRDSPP
Sequence of JAK3 (JH1domain-catalytic) (P52333 822-1111): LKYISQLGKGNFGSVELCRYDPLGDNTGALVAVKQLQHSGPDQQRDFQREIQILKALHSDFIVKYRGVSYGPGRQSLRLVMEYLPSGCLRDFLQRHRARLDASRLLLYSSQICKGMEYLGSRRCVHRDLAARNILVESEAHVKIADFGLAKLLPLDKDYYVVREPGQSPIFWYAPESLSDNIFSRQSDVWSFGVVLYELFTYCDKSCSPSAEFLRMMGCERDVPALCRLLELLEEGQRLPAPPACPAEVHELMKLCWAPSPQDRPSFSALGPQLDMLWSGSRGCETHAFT
Sequence of RSK2 (Kin.Dom.1-N-terminal) (P51812 68-327): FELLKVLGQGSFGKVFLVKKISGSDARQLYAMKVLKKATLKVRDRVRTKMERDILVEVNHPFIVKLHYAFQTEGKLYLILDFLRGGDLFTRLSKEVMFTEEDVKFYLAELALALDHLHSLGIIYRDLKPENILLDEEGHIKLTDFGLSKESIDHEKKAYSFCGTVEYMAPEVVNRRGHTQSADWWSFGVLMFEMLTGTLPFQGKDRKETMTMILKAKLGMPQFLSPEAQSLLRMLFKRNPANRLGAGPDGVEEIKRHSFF
Sequence of NEK6 (Q9HC98 whole entry): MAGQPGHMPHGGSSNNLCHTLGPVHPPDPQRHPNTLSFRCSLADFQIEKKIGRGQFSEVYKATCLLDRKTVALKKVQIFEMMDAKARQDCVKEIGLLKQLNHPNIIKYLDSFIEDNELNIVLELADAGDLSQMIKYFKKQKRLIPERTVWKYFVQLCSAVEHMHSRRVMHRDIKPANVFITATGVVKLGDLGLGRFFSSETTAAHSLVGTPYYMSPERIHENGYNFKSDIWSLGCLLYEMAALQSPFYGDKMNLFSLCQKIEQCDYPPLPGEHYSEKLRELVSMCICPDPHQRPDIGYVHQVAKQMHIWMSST

COc1ccc(N2C(=O)N(c3c(C)cccc3C)Cc3cnc(Nc4ccc(N5CCN(C)CC5)cc4)nc32)c(OC)c1 [HG-11-136-01]
KINOMEscan NEK9 (NEK9): 81
KINOMEscan KIT (KIT): 0
KINOMEscan ABL1 (Y253F)-phosphorylated [1]: 0.15
KINOMEscan ALK (C1156Y) (ALK (C1156Y)): 12
KINOMEscan PIK3CB (PIK3CB): 92
KINOMEscan NEK6 (NEK6): 100
KINOMEscan VRK2 (VRK2): 86
KINOMEscan TLK1 (TLK1): 76
KINOMEscan SNARK (SNARK): 0.4
KINOMEscan JAK3 (JH1domain-catalytic) [2]: 0
KINOMEscan FLT4 (FLT4): 6.6
KINOMEscan YSK4 (YSK4): 0.4
KINOMEscan CAMK1 (CAMK1): 82
KINOMEscan PFCDPK1 (P. falciparum) (PFCDPK1 (P. falciparum)): 0.1
KINOMEscan CLK4 (CLK4): 33
KINOMEscan WEE2 (WEE2): 82
KINOMEscan DDR1 (DDR1): 0.3
KINOMEscan PIK3CA (E545K) (PIK3CA (E545K)): 98
KINOMEscan TRKC (TRKC): 71
KINOMEscan ERK2 (ERK2): 96
KINOMEscan ABL1 (F317L)-phosphorylated [3]: 1.8
KINOMEscan DCAMKL3 (DCAMKL3): 77
KINOMEscan LIMK2 (LIMK2): 0
KINOMEscan PFPK5 (P. falciparum) (PFPK5 (P. falciparum)): 96
KINOMEscan MAPKAPK2 (MAPKAPK2): 100
KINOMEscan GRK7 (GRK7): 96
KINOMEscan DLK (DLK): 6.6
KINOMEscan IKK-epsilon (IKK-epsilon): 47
KINOMEscan TEC (TEC): 2.6
KINOMEscan TNNI3K (TNNI3K): 3.6
KINOMEscan PAK6 (PAK6): 37
KINOMEscan MINK (MINK): 2.8
KINOMEscan TIE1 (TIE1): 30
KINOMEscan FAK (FAK): 24
KINOMEscan SRPK1 (SRPK1): 16
KINOMEscan CAMK2B (CAMK2B): 90
KINOMEscan SNRK (SNRK): 91
KINOMEscan RSK2 (Kin.Dom.1-N-terminal) [4]: 12
KINOMEscan FRK (FRK): 0.05
KINOMEscan CDK5 (CDK5): 100
KINOMEscan RAF1 (RAF1): 93
